Assay results: patent publication US7858322B2, “Method of determining inhibition of binding to TRPM7 protein” (NoNo, Inc., priority 2003, dated 2010)

System: cultured neurons
Assay: Neuronal survival 20 h after 1 h NMDA challenge
Type: cell-based
Conditions: peptide applied immediately after the NMDA challenge; FIG. 14
Procedure: The sequence of Tat-9cTRPM7 is: [[…] or [[…]-[…]] (SEQ ID NO:258), whereby the first 11 residues correspond to the cell membrane transduction domain of the human immunodeficiency virus type 1 (HIV-1) Tat protein and the last 9 residues correspond to the last 9 amino acids of the C-terminus of human TRPM7 (accession Q96QT4). […] (A) Neuronal survival at 20 h in the indicated concentrations of Tat-9cTRPM7 in the absence of excitotoxic challenge. (B) Neuronal survival 20 h after challenging the cultures for 1 h with the indicated concentration of NMDA. Tat-9cTRPM7 was applied immediately after the NMDA challenge.
The sequence of Tat-9cTRPM7 is: [[…]-[…]; SEQ ID NO:258], whereby the first 11 residues correspond to the cell-membrane transduction domain of the human immunodeficiency virus type 1 (HIV-1) Tat protein and the last 9 residues correspond to the last 9 amino acids of the C-terminus of human TRPM7 (accession Q96QT4). (A) Neuronal survival at 20 h in the indicated concentrations of Tat-9cTRPM7 in the absence of excitotoxic challenge. (B) Neuronal survival 20 h after challenging the cultures for 1 h with the indicated concentration of NMDA. Tat-9cTRPM7 was applied immediately after the NMDA challenge.

With “YGRKKRRQRRR-STNSVRLML (YGRKKRRQRRRSTNSVRLML) [Tat-9cTRPM7, HIV-1 Tat transduction domain fused to last 9 amino acids of human TRPM7]” the “Neuronal survival 20 h after challenging the cultures for 1 h with NMDA” value was “enhanced survival when challenged with NMDA”.
